Literature values as cited in patent publication US7009061B2, “Diterpene compounds” (Nihon University, priority 2003, dated 2006).

Tested on: P-388 cells

Compound	depressive activities against P-388 cells in vivo
CCCCCCCCCCCCCCCC(=O)OCC1=C[C@@H]2C(=O)[C@]3(C=C(C)[C@H](OC(=O)C(C)C(C)C)[C@@]3(O)[C@@H]1O)[C@H](C)C[C@]1(OC(=O)CCCCCCCCCCC)[C@H]2C1(C)C (some centres unmarked) [kansuiphorin A]	depressive activities
kanusiphorin B	depressive activities
